This is an account of results in patent EP3300733A1, “SUBSTANCE SELECTED AMONG IRINOTECAN, AN IRINOTECAN ACTIVE METABOLITE, 5-FLUORO-URACILE, A PHARMACEUTICAL SALT THEREOF AND A MIXTURE THEREOF, FOR USE IN THE TREATMENT OF FIBROSIS” (Centre Hospitalier Universitaire de Bordeaux, priority 2016, dated 2018).

One series has as its system dermal fibroblasts. Description: cytotoxicity on the fibroblasts (data not shown). It counts as cell-based, human.
The test system of another series is CCL2 mRNA. Description: mRNA expression of fibrosis genes in dermal fibroblasts (qPCR): CCL2. It counts as cell-based. The settings on record: Homo sapiens, Fibroblast, 24h, SSc and healthy fibroblasts, vs non-treated, read-out: average inhibition of CCL2 mRNA levels. The method, then: (§1) Dermal fibroblasts were obtained from clinically affected skin of systemic sclerosis (SSC) patients and from healthy donors (H). The fibroblasts were grown in DMEM medium containing 2mM of L-glutamine supplemented with 10% foetal bovine serum (FCS) and penicillin/streptomycin antibiotics.
(§2) Dermal fibroblasts were plated in DMEM 10% FCS in 24-well plates. 24h before the experiment, medium was switched to DMEM 0% FCS. […] Supernatants were removed and plates were freezed at -80°c. Fibroblasts RNA from each well-plate were extracted with NucleoSpin® RNA Plus kit (Macherey-Nagel) according to manufacter's instructions. Triplicates were done and RNA from triplicates were pooled together. The quantity and quality of RNA were evaluated by capillary electrophoresis (Bioanalyzer 2100, Agilent).
(§3) RNA was used for cDNA synthesis using the Transcriptor Reverse Transcriptase kit (Roche). qPCR reactions were run on a Light Cycler (Roche Molecular Systems Inc.) according to manufacter's instructions. The relative gene expression levels of COL1A1, COL1A2, MMP1, TIMP1, CCL2 and ACTA2 were calculated using the ΔΔCt method. Target mRNA levels were normalized to GAPDH.
(§4) Expression of the genes in the different treated conditions was presented as fold change compared with the gene expression of the same non-treated fibroblasts arbitrary fixed at 100%.

In a further series the test system is COL1A1 mRNA. The series is described as follows: mRNA expression of fibrosis genes in dermal fibroblasts (qPCR): COL1A1. The settings on record: Homo sapiens, Fibroblast, read-out: average inhibition of COL1A1 mRNA levels. It counts as cell-based. The method, then: as §1, §2, §3, §4
In another series the test system is MMP1 mRNA. The series is described as follows: mRNA expression of fibrosis genes in dermal fibroblasts (qPCR): MMP1. Particulars: Homo sapiens, Fibroblast, read-out: average inhibition of MMP1 mRNA levels. In kind it is cell-based. The method, then: as §1, §2, §3, §4
In the next series the test system is COL1A2 mRNA. Description: mRNA expression of fibrosis genes in dermal fibroblasts (qPCR): COL1A2. In kind it is cell-based. Particulars: Homo sapiens, Fibroblast, read-out: average inhibition of COL1A2 mRNA levels. The method, then:
as §1, §2, §3, §4
(Real-time PCR tracks product formation cycle by cycle.)

Series [1] concerns procollagen I. Description: release of procollagen I protein by dermal fibroblasts (ELISA), dose response. Particulars: 48h, both cell types (SSC and healthy fibroblasts), vs non-treated. It counts as cell-based, human. The method, then:
as §1
Dermal fibroblasts were plated in DMEM 10% FCS supplemented with 20µg/mL of vitamin C in 96-well plates. 24h before the experiment, medium was switched to DMEM 0% FCS supplemented with 20µg/mL of vitamin C. […] Supernatants were collected to evaluate the procollagen I release level by ELISA kit (ref MK101, supplier Takara) according to manufacter's instructions. Triplicates were done. The level of procollagen I release was presented as fold change compared with the procollagen I release by the same non-treated fibroblasts arbitrary fixed at 100%.
In general terms: In an ELISA, binding on a coated surface is turned into a signal by an enzyme label.

The test system of series [2] is procollagen I. Description: effect of a combination of low SN38 and 5FU doses on procollagen I release (ELISA). In kind it is cell-based, human. Particulars: 5FU 1 µg/ml alone (condition B), 48h; patient SSC2, SSC3 or H2.
Experimental: Dermal fibroblasts were plated in DMEM 10% FCS supplemented with 20µg/mL of vitamin C in 96-well plates. 24h before the experiment, medium was switched to DMEM 0% FCS supplemented with 20µg/mL of vitamin C. Cells were treated for 48h with SN38 (0.006 µg/mL), 5FU (1 µg/mL) or a combination (SN38 0.006 µg/mL and 5FU 1 µg/mL) in DMEM 0% FCS supplemented with 20µg/mL of vitamin C. Supernatants were collected to evaluate the procollagen I release level by ELISA kit (ref MK101, supplier Takara) according to manufacter's instructions. Triplicates were done. The level of procollagen I release was presented as fold change compared with the procollagen I release by the same non-treated fibroblasts arbitrary fixed at 100%.
Another series has as its system TIMP1 mRNA. The series is described as follows: mRNA expression of fibrosis genes in dermal fibroblasts (qPCR): TIMP1. In kind it is cell-based. Particulars: Homo sapiens, Fibroblast, read-out: average inhibition of TIMP1 mRNA levels. The method, then:
as §1, §2, §3, §4

Series [3] concerns idiopathic pulmonary fibrosis. Particulars: on one year, 72 week phase III trial; cited from earlier work.
The subject of a further series is ACTA2 mRNA. Description: mRNA expression of fibrosis genes in dermal fibroblasts (qPCR): ACTA2. Particulars: Homo sapiens, Fibroblast, read-out: average inhibition of ACTA2 mRNA levels. In kind it is cell-based. The method, then: as §1, §2, §3, §4
In series [4] the test system is diffuse cutaneous systemic sclerosis. Particulars: cited from earlier work.
A further series deals with diffuse scleroderma. Description: clinical case: patient with diffuse scleroderma treated with chemotherapy. It counts as in vivo, human. Particulars: methotrexate 7.5 mg to 10 mg per week for 5 years before admission. An excerpt:
A person was referred for fever and abdominal pain. Their medical history was mainly represented by a systemic scleroderma diagnosed 20 years before and with digestive, cutaneous and rheumatologic involvement. […] Blood test found anti topo-I antibodies to high level (141 IU/mL, normal range 0-29). […] The modified Rodnan score was 24/51.
Then, it was proposed to the patient 4 cycles of chemotherapy FOLFORINOX followed by rectal surgery.
The patient received 4 cycles of FOLFORINOX (oxaliplatine 85 mg/m^2, irinotecan 180 mg/m^2, 5-fluoro-uracil 400 mg/m^2 flash then 2400 mg/m^2 the following 46 hours). Cycles of chemotherapy were administered every 14 days on January 13 and 27, and February 11 and 25, 2014.
Then, the patient had surgery and according to post-surgical piece, it was realized 6 cycles of FOLFOX (folinic acid, oxaliplatine and 5-fluorouracil) with no new improvement during these last 6 cycles.

The mark [5] stands for this setting: all the doses used in the procollagen I release test (irinotecan 0.006-40 µg/ml, SN38 0.00006-0.6 µg/ml, 5FU 0.3-80 µg/ml).
Where [6] appears, read: 5FU 384 µM (highest dose), 24h, SSc and healthy fibroblasts, vs non-treated.
Where [7] appears, read: control group (cyclophosphamide), share of patients.
[8] abbreviates: irinotecan 32 µM (highest dose), 24h, SSc and healthy fibroblasts, vs non-treated.

Like-named read-outs stand apart in the source and are kept apart here.

For orientation: inhibition means the relative decrease from the control value, in per cent. Consider `O=c1[nH]cc(F)c(=O)[nH]1` [5FU, 5-Fluoro-1H,3H-pyrimidine-2,4-dione], for which the “cytotoxic on the fibroblasts” value is reported as “not cytotoxic” in the series on dermal fibroblasts (38.4 µM and 384 µM); “not cytotoxic” in the series with dermal fibroblasts (setting [5]). The inhibition at 384 µM in the series with CCL2 mRNA (5FU 384 µM (highest dose)) stood at 31%; in the series with COL1A1 mRNA (setting [6]) it was 17%; with MMP1 mRNA (setting [6]), 37%; with COL1A2 mRNA (setting [6]), 12%; in the series on TIMP1 mRNA (setting [6]) it was 15%. For the same molecule, the “release of procollagen I protein” value with procollagen I [1] (80µg/mL) is given as “significantly decreased”. In the series with procollagen I [2], the “procollagen I release” value is reported as “not observed”.
As for `Cc1ccc(=O)n(-c2ccccc2)c1` [Pirfenidone], the “reduce decline in lung function (forced vital capacity, FCV)” value in series [3] is reported as 4.4%.
Regarding `CCc1c2c(nc3ccc(O)cc13)-c1cc3c(c(=O)n1C2)COC(=O)[C@]3(O)CC` [SN38, 7-Ethyl-10-hydroxy-camptothecin], the “cytotoxic on the fibroblasts” value in the series with dermal fibroblasts (0.1 µM and 1 µM) is on record as “not cytotoxic”; in the series on dermal fibroblasts (setting [5]) it was “not cytotoxic”. For the same molecule, the inhibition at 1 µM in the series with COL1A1 mRNA (24 h) worked out at 57.5%; with MMP1 mRNA (24 h), 42%; in the series with COL1A2 mRNA (24 h) it was 52%; with TIMP1 mRNA (24 h), 22%; in the series with ACTA2 mRNA (24 h) it was 55%. The “release of procollagen I protein” value in the series with procollagen I [1] (0.3 µg/mL) and in the series on procollagen I [1] (0.6 µg/mL) was “significantly decreased” in each case.
In the case of `O=P1(N(CCCl)CCCl)NCCCO1` (stereo not shown) [cyclophosphamide], the “events, cumulative” value in series [4] (control group (cyclophosphamide), at 2 years) is 18.2%. In addition, in [4] (control group (cyclophosphamide), at 4 years), the “events, cumulative” value was 26%. The events in [4] (control group (cyclophosphamide), during the first year, no treatment-related deaths) is 10.4%. In addition, in series [4] (setting [7]), the “Grade 3 or 4 adverse events” value was 37.0% and the Viral infections was 1.3%. In addition, the “events (deaths and irreversible organ failures)” value in [4] (control group (cyclophosphamide, n = 77), median follow-up of 5.8 years, 23 deaths and 8 irreversible organ failures) is listed as 31.
In the case of `CCc1c2c(nc3ccc(OC(=O)N4CCC(N5CCCCC5)CC4)cc13)-c1cc3c(c(=O)n1C2)COC(=O)[C@]3(O)CC` [irinotecan, (S)-4,11-diethyl-3,4,12,14-tetrahydro-4-hydroxy-3,14-dioxo1H-pyrano[3',4':6,7]-indolizino[1,2-b]quinolin-9-yl-[1,4'bipiperidine]-1'-carboxylate], the “cytotoxic on the fibroblasts” value in the series on dermal fibroblasts (3.2 µM and 32 µM) is recorded as “not cytotoxic”; in the series with dermal fibroblasts (setting [5]), “not cytotoxic”. Besides, the inhibition at 32 µM with CCL2 mRNA (irinotecan 32 µM (highest dose)) turned out to be 19%; in the series with COL1A1 mRNA (setting [8]), 27%; in the series on MMP1 mRNA (setting [8]), 32%; with COL1A2 mRNA (setting [8]), 22%; in the series with ACTA2 mRNA (setting [8]) it was 33%. In the series with procollagen I [1] (40µg/mL), the “release of procollagen I protein” value is given as “significantly decreased”.
With `CN(Cc1cnc2nc(N)nc(N)c2n1)c1ccc(C(=O)N[C@@H](CCC(=O)O)C(=O)O)cc1` [methotrexate], in the series on diffuse scleroderma, the “impact on scleroderma evolution” value was “without substantial impact”.
